Reference: patent publication US20220127335A1, “TETRAMERIC PROTEIN SCAFFOLDS AS NANO-CARRIERS OF THERAPEUTIC PEPTIDES FOR TREATING CANCER AND OTHER DISEASES” (UNIVERSITY OF MARYLAND, BALTIMORE, priority 2019, published 2022)
Where two headings read alike, the source gives them in different places.

Key:
[1] = Complete blood cell analysis after 21-day treatment; settings: end of three-week treatment
Description: (§1) Statistical analysis was performed using T-test, NS standing for no significant difference.

[2] = tested on: p53, p21, PUMA, NOXA in HCT116 p53^+/+ cells; assay: Western blotting of p53, p21, PUMA, NOXA; assay type: cell-based; settings: 12.5 μM, 48 h
Description: The primary antibodies were from Santa Cruz Biotechnology (p53), Calbiochem (p21, PUMA and NOXA) and Sigma-Aldrich (β-actin), and secondary antibodies conjugated with horseradish peroxidase from Calbiochem.
T-test was performed for statistical analysis, * standing for p<0.05, *** for p<0.001. The data are the means±SD of three independent Western blotting assays.

[3] = end of three-week treatment
HCT116 p53^+/+ cells [4] = assay: Cell viability (CCK-8), HCT116 p53^+/+; assay type: cell-based; settings: 48 h after treatment, 1.56 μM to 50 μM
Description: (§2) Following a 2-h incubation with CCK-8 reagents, absorbance values at 450 nm were measured on a microplate reader, and percent cell viability was calculated as (Atreatment−Ablank)/(Acontrol−Ablank)×100%. The data are the means of three independent assays.
Three independent assays were performed.

HCT 116 p53^+/+ cells = assay: Cellular uptake by flow cytometry and confocal microscopy; assay type: cell-based
Description: HCT 116 p53^+/+ cells were seeded in a 12-well plate at a density of 30,000 cells/well, cultured for 24 h, and treated with peptide or protein at 10 μM for 4 h before flow cytometric analysis.
Hoechst 33342 blue dye was used for nuclei staining.
Peptide/protein internalization and cytosolic release were also examined using both confocal microscopy and flow cytometry.
Cationic cell penetrating peptides as a carrier are known to promote cellular uptake of cargos primarily through the […], which is inhibited by heparin but not by amiloride. To better understand the mechanism of cellular uptake of ^PMIBcr/Abl-R6, confocal microscopic analysis was performed on cells treated with heparin or amiloride.

[5] = tested on: HCT116 p53^+/+ xenograft tumors; assay: Histopathology of xenograft tumors (H&E and TUNEL staining); assay type: in vivo, BALB/c nude mice; settings: tumors after three-week treatment, 5 mg/Kg
Description: Representative tumors from each treatment group were fixed with formaldehyde, dehydrated and sliced into 5 μm-thick sections, and subjected to H&E staining according to standard protocols (scale bar: 50 μm).
FIG. 7F is the terminal deoxynucleotidyl transferase dUTP nick end labeling (TUNEL) assay to stain fragmented DNA in apoptotic cells (scale bar: 50 μm).

[6] = tested on: HCT116 p53^+/+ xenograft tumors; assay: Tumor growth inhibition in nude mouse xenograft model; assay type: in vivo, BALB/c nude mice; settings: 5 mg/Kg subcutaneous every other day, 3 weeks
[7] = target: the molecule itself; assay: self-association into tetramer; SEC, DLS, fluorescence polarization, SAXS
[8] = target: T1, MDM2 (p53-binding domain) (UniProt Q00987 25-109, limits assumed); assay: ITC, MicroCal ITC 200, 25° C., 20 mM Tris/HCl pH 7.4
T1 construct: The ITC legends say only 'MDM2'
T1 sequence (Q00987 25-109 limits assumed): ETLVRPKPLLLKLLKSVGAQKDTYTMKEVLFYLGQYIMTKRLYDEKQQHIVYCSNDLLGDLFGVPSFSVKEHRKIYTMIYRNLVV

[9] = mouse, in vivo
Description: as §1

HCT116 p53^+/+ cells [10] = assay: Apoptosis by flow cytometry (annexin V / propidium iodide); assay type: cell-based; settings: 12.5 μM, 48 h
Description: Apoptosis was detected using a standard apoptotic kit from Biolegend, including APC labeled anti-annexin V antibody and a propidium iodide solution.
Three independent FACS assays were performed, and data are shown as the means±SD (n=3). p values were calculated by t-test (***, p<0.001).

HCT116 p53^−/− cells = assay: Cell viability (CCK-8), HCT116 p53^−/−; settings: 48 h after treatment
Description: as §2

Molecule	expression of p21, PUMA and NOXA (Western blotting) [2]	p53 level (Western blotting) [2]	toxicity to liver and kidney tissues (H&E) [3]	cell viability / growth inhibition (HCT116 p53^+/+ cells [4])	necrotic and apoptotic tumor cells (H&E and TUNEL) [5]	effect on tumor growth [6]	blood cell counts (WBC, LYM, MID, GRN, RBC, PLT) versus mock-treated control [9]	further results
COc1ccc(C2=N[C@@H](c3ccc(Cl)cc3)[C@@H](c3ccc(Cl)cc3)N2C(=O)N2CCNC(=O)C2)c(OC(C)C)c1 [Nutlin-3, reference compound]	upregulation	significantly stabilized p53	no overt toxicity					blood cell counts (WBC, LYM, MID, GRN, RBC, PLT) versus mock-treated control [1]: no statistically significant difference
^PMIBcr/Abl-R6: Bcr/Abl tetramerization domain with PMI grafted in place of residues 5-16, C-terminally extended by Arg-repeating hexapeptide (R6); 78 residues, tetramer	upregulation	significantly stabilized p53		dose-dependent growth inhibition	massive necrotic and apoptotic tumor cells	significantly inhibited it		cellular uptake (flow cytometry) (HCT 116 p53^+/+ cells; BDP TR-labeled, 10 μM, 4 h): much more efficiently; cytosolic distribution (confocal microscopy) (HCT 116 p53^+/+ cells; BDP TR-labeled, 10 μM, 4 h): cytosolic distribution; effect of amiloride on internalization (HCT 116 p53^+/+ cells; amiloride 3 mM, 12 h before addition): little effect; effect of heparin on internalization (HCT 116 p53^+/+ cells; heparin sodium 5 mM, 12 h before addition): almost completely blocked it
^PMIBcr/Abl-R6 (designed binder, Bcr/Abl tetramerization domain with PMI grafted in place of residues 5-16 and a C-terminal Arg hexapeptide (R6); 78 residues, chemically synthesized by native chemical ligation; Exists as a tetramer in aqueous buffer) MVDPTSFAEYWALLSPDSEPPRMELRSVGDIEQELERAKASIRRLEQEVNQERFRMIYLQTLLAKEKKSYDRRRRRRR								binding result [7]: binds
Bcr/Abl-R6 (other, Negative control scaffold without the PMI graft: Bcr/Abl tetramerization domain with C-terminal R6; Chemically synthesized; tetramer in aqueous buffer) MVDPVGFAEAWKAQFPDSEPPRMELRSVGDIEQELERAKASIRRLEQEVNQERFRMIYLQTLLAKEKKSYDRRRRRRR			no overt toxicity	neither PMI nor Bcr/Abl-R6 had any effect on the viability	lack of activity	no effect on tumor growth	no statistically significant difference	binding result [8]: no binding; apoptosis (FACS) (HCT116 p53^+/+ cells [10]): largely unaffected; cell viability (HCT116 p53^−/− cells): neither PMI nor Bcr/Abl-R6 had any effect on the viability
^PMIBcr/Abl: Bcr/Abl tetramerization domain with PMI grafted in place of residues 5-16, without R6; negative control (protein) MVDPTSFAEYWALLSPDSEPPRMELRSVGDIEQELERAKASIRRLEQEVNQERFRMIYLQTLLAKEKKSYDR			no overt toxicity		partial activity	marginally active	no statistically significant difference	
